Source: patent US20160129080A1, “TREATMENT OF POLYPOIDAL CHROIDAL VASCULOPATHY” (priority 2013, published 2016)

B1: ranibizumab (antibody, chains of the INN, looked up, V domains shown)
VH: EVQLVESGGGLVQPGGSLRLSCAASGYDFTHYGMNWVRQAPGKGLEWVGWINTYTGEPTYAADFKRRFTFSLDTSKSTAYLQMNSLRAEDTAVYYCAKYPYYYGTSHWYFDVWGQGTLVTVSS
VL: DIQLTQSPSSLSASVGDRVTITCSASQDISNYLNWYQQKPGKAPKVLIYFTSSLHSGVPSRFSGSGSGTDFTLTISSLQPEDFATYYCQQYSTVPWTFGQGTKVEIK
modifications: Fab
notes: anti-VEGF antibody antagonist approved for human use

What was measured:
[1] = Indocyanine green angiography-assessed complete regression of polyps, randomized three-group patient study; format: in vivo, human; settings: month 6, 61 patients randomized to three groups, ranibizumab 0.5 mg intravitreal
Procedure: (§1) Sixty-one patients were randomized to three treatment groups: verteporfin photodynamic therapy, ranibizumab 0.5 mg, or the combination. Patients were administered with verteporfin photodynamic therapy/placebo and initiated with three consecutive monthly intravitreal ranibizumab/sham injections starting from day 1 (first photodynamic therapy session). Indocyanine green angiography was performed at baseline and at months 3, 4, 5, and 6. Fluorescein angiography was performed to assess the presence of leakage and to obtain fundus photographs at the same times. Changes in central retinal thickness were determined by optical coherence tomography. Treatment with ranibizumab/sham injections was repeated at months 3-5 on an as-needed basis.
(§2) The primary endpoint was the proportion of patients with indocyanine green angiography-assessed complete regression of polyps at month 6. Secondary endpoints included mean change in best corrected visual acuity at month 6 and safety.

[2] = Best corrected visual acuity change, randomized three-group patient study; format: in vivo, human; settings: month 6; mean±SD; ranibizumab 0.5 mg intravitreal
Procedure: as §1, §2

Molecule | proportion of patients with complete polyp regression [1] [%] | Mean change±standard deviation in best corrected visual acuity [2] [letters]
verteporfin | 71.4 | 7.5±10.6
B1 | 28.6 | 9.2±12.4
